Test: Safety (adverse events, NCI CTCAE v4.0), expansion phase
Conditions: expansion QD 5 mg
Description: Based on data collected during dose-escalation, the expansion phase evaluated the safety and efficacy of QD and QW sapanisertib in patients with RCC, endometrial or bladder cancer. Patients could continue receiving sapanisertib for ≤1 year (or beyond, if the investigator and sponsor agreed) in the absence of disease progression or unacceptable toxicity.
Patients who received ≥1 dose of sapanisertib were included in the safety population. The response-evaluable population included patients who received ≥1 dose of sapanisertib, had measurable disease at baseline, and had ≥1 postbaseline assessment. […] Adverse events (AEs) were assessed using the National Cancer Institute Common Terminology Criteria for Adverse Events, v4.0. Patients were provided with a home blood-glucose meter to monitor their fasting predose blood-glucose measurements to assess hyperglycaemia as an on-target AE and PD marker.

CC(C)n1nc(-c2ccc3oc(N)nc3c2)c2c(N)ncnc21 [Sapanisertib]
6 (15) n (%): Anaemia, all-grade AE of any cause | Dehydration, all-grade AE of any cause | Urinary tract infection, all-grade AE of any cause | Weight decreased, all-grade AE of any cause
10 (26) n (%): Constipation, all-grade AE of any cause | Dysgeusia, all-grade AE of any cause | Dysgeusia, treatment-related AE | Pruritus, all-grade AE of any cause
2 (5) n (%): Acute kidney injury, grade ≥3 AE of any cause | Acute kidney injury, treatment-related AE | Anaemia, treatment-related AE | Arthralgia, all-grade AE of any cause | Dehydration, treatment-related AE | Diarrhoea, grade ≥3 AE of any cause | Diarrhoea, treatment-related grade ≥3 AE | Dyspnoea, grade ≥3 AE of any cause | Haematuria, grade ≥3 AE of any cause | Hyperkalaemia, grade ≥3 AE of any cause | Pneumonia, grade ≥3 AE of any cause | Thrombocytopenia, grade ≥3 AE of any cause | Thrombocytopenia, treatment-related grade ≥3 AE
7 (18) n (%): Abdominal pain, all-grade AE of any cause | Any AE resulting in treatment discontinuation | Asthenia, treatment-related AE | Pruritus, treatment-related AE
20 (51) n (%): Decreased appetite, all-grade AE of any cause | Diarrhoea, all-grade AE of any cause | Nausea, treatment-related AE
22 (56) n (%): Fatigue, treatment-related AE
1 (3) n (%): Anaemia, grade ≥3 AE of any cause | Asthenia, grade ≥3 AE of any cause | Asthenia, treatment-related grade ≥3 AE | Depression, all-grade AE of any cause | Dyspepsia, treatment-related AE | Hypertension, grade ≥3 AE of any cause | Hypokalaemia, grade ≥3 AE of any cause | Hyponatremia, grade ≥3 AE of any cause | Lymphopenia, grade ≥3 AE of any cause | Musculoskeletal chest pain, grade ≥3 AE of any cause | Nausea, grade ≥3 AE of any cause | Nausea, treatment-related grade ≥3 AE | Pruritus generalised, treatment-related grade ≥3 AE | Rash, treatment-related AE | Sepsis, grade ≥3 AE of any cause | Vomiting, grade ≥3 AE of any cause
30 (77) n (%): Any grade ≥3 AE
21 (54) n (%): Nausea, all-grade AE of any cause
19 (49) n (%): Any SAE | Stomatitis (includes oropharyngeal pain and mucosal inflammation), treatment-related AE | Stomatitis, all-grade AE of any cause
0 (0) n (%): Constipation, grade ≥3 AE of any cause | Dehydration, grade ≥3 AE of any cause | Dehydration, treatment-related grade ≥3 AE | Headache, treatment-related AE | Hypercholesterolemia, treatment-related AE | Lymphopenia, treatment-related grade ≥3 AE | Pain in extremity, grade ≥3 AE of any cause | Rash, treatment-related grade ≥3 AE | Transitional cell carcinoma, grade ≥3 AE of any cause
9 (23) n (%): Cough, all-grade AE of any cause | Dizziness, all-grade AE of any cause | Oedema peripheral, all-grade AE of any cause
27 (69) n (%): Any AE resulting in dose modification/interruption
4 (10) n (%): Fatigue, treatment-related grade ≥3 AE | Headache, all-grade AE of any cause | Hypophosphatemia, grade ≥3 AE of any cause
17 (44) n (%): Decreased appetite, treatment-related AE | Diarrhoea, treatment-related AE | Hyperglycaemia, treatment-related AE | Rash maculo-papular, all-grade AE of any cause
13 (33) n (%): Vomiting, all-grade AE of any cause
12 (31) n (%): Pruritus generalised, all-grade AE of any cause | Vomiting, treatment-related AE
3 (8) n (%): Abdominal pain, grade ≥3 AE of any cause | Blood creatinine increased, treatment-related AE | Dry mouth, treatment-related AE | Hypophosphatemia, treatment-related AE | Hypophosphatemia, treatment-related grade ≥3 AE | Oropharyngeal pain, all-grade AE of any cause | Rash maculo-papular, grade ≥3 AE of any cause | Rash maculo-papular, treatment-related grade ≥3 AE | Stomatitis, grade ≥3 AE of any cause | Stomatitis, treatment-related grade ≥3 AE
11 (28) n (%): Pruritus generalised, treatment-related AE
5 (13) n (%): Any treatment-related SAE | Blood creatinine increased, all-grade AE of any cause | Dry mouth, all-grade AE of any cause | Fatigue, grade ≥3 AE of any cause | Hyperglycaemia, grade ≥3 AE of any cause | Hyperglycaemia, treatment-related grade ≥3 AE | Weight decreased, treatment-related AE
0 n (%): On-study deaths
8 (21) n (%): Pyrexia, all-grade AE of any cause
18 (46) n (%): Any treatment-related grade ≥3 AE | Hyperglycaemia, all-grade AE of any cause
25 (64) n (%): Fatigue, all-grade AE of any cause
14 (36) n (%): Rash maculo-papular, treatment-related AE
39 (100) n (%): Any AE | Any treatment-related AE
